Measurements taken from patent US20080025966A1, “Methods And Compositions For The Treatment Of Gastrointestinal disorders” (priority 2004, published 2008).
No end group written: not given here.

Assays:
[1] = target: T1, chymotrypsin (Bos taurus, UniProt P00766); assay: Guanylin degradation assay (chymotrypsin digestion) read out in the T84 cGMP assay; assay type: biochemical, bovine; details: T84 cells, FIG. 1
T1 construct: purchased Sigma C6423
Method: Since guanylin is susceptible to digestion by chymotrypsin, chymotrypsin activity can be assayed based on guanylin cleavage. […] From this stock, six (6) 500 μl aliquots were prepared in 2 ml Eppendorf tubes and labeled “Control”, “T0”, “T15”, “T30”, “T60”, and “T180”, with “T_” representing timepoints, in minutes. 5 μl of a 10 mM chymostatin (Sigma, C7268) stock (5 mg of chymostatin resuspended in 824 μl of DMSO) was added to the “Control” samples and all samples were incubated for 5 minutes at 30° C. Chymostatin inhibits chymotrypsin activity and this sample served as a negative control. Next, 20 μl of a chymotrypsin (Sigma, C6423) enzyme solution (0.01 mg/ml bovine chymotrypsin enzyme in 1 mM HCl, 2 mM Calcium Chloride) were added to the samples and mixed by inversion. Samples are incubated at 30° C. […] Determination of sensitivity to digestion by chymotrypsin was determined by LCMS analysis and by in vitro activity in the T84 cGMP assays described below.
The ability of guanylin to activate the intestinal GC-C receptor was assessed in an assay employing the T84 human colon carcinoma cell line (American Type Culture Collection (Bethesda, Md.). For the assays cells were grown to confluency in 24-well culture plates with a 1:1 mixture of Ham's F12 medium and Dulbecco's modified Eagle's medium (DMEM), supplemented with 5% fetal calf serum and were used at between passages 54 and 60. […]

[2] = tested on: guanylin-induced intestinal fluid secretion; details: suckling mouse model; chymostatin given with guanylin; cited from earlier work
[3] = tested on: chymotrypsin; details: cited from earlier work
[4] = tested on: human HT-29/B6 cells; details: cited from earlier work

CC(C)C[C@H](NC(=O)[C@@H](NC(=O)N[C@@H](Cc1ccccc1)C(=O)O)C1CCNC(=N)N1)C(=O)N[C@H](C=O)Cc1ccccc1 (stereo partly shown) [chymostatin]
guanylin stimulated cGMP activity with chymotrypsin inhibitor present ([1]; chymostatin added before chymotrypsin digestion of guanylin): retained | guanylin-induced intestinal fluid secretion [2]: required in order to observe guanylin-induced intestinal fluid secretion | chymotrypsin-mediated inactivation of guanylin [3]: can be prevented

Cc1c(O)cccc1C(=O)N[C@@H](CSc1ccccc1)[C@H](O)CN1C[C@H]2CCCC[C@H]2C[C@H]1C(=O)NC(C)(C)C [nelfinavir, Nelfinavir]
effect on the epithelial barrier [4]: impair the epithelial barrier

CC(C)c1nc(CN(C)C(=O)N[C@H](C(=O)N[C@@H](Cc2ccccc2)C[C@H](O)[C@H](Cc2ccccc2)NC(=O)OCc2cncs2)C(C)C)cs1 [ritonavir]
effect on the epithelial barrier [4]: impair the epithelial barrier

CC(C)(C)NC(=O)[C@@H]1C[C@@H]2CCCC[C@@H]2CN1C[C@@H](O)[C@H](Cc1ccccc1)NC(=O)[C@H](CC(N)=O)NC(=O)c1ccc2ccccc2n1 [saquinavir, Saquinavir]
effect on the epithelial barrier [4]: impair the epithelial barrier

guanylin: intestinal peptide of 15 amino acids, agonist of the guanylate cyclase (GC-C) receptor; Sigma G-116 (PGTCEICAYAACTGC; ends and bridges not checked; cysteine pairing not given here; UniProt Q02747 101-115, looked up)
guanylin stimulated cGMP activity ([1]; guanylin digested with chymotrypsin at 30° C., timepoints 0-180 min, no chymostatin): decreases over time
